The target in assay [1] is T1, Na^+,K^+ -ATPase (Canis lupus familiaris, UniProt P50997).
T1 construct: Na^+,K^+ -ATPase receptor purified according to Jorghensen; from tissue
The assay can be described thus: displacement of the specific 3H-ouabain binding from the purified Na+,K+-ATPase receptor. The text has this: (§1) To test the affinity for the receptor site of the Na^+,K^+ -ATPase and the agonist or antagonist activity on the enzyme, the following tests were used:
a) displacement of the specific ^3 H-ouabain binding from the Na^+,K^+ -ATPase receptor purified according to Jorghensen (Jorghensen P., BBA. 1974, 356, 36) and Erdmann (Erdmann E. et al., Arzneim. Forsh., 1984, 34, 1314);

Assay [2] deals with T1, Na^+,K^+ -ATPase. The assay can be described thus: inhibition of the activity of the purified Na+,K+-ATPase (% hydrolysis of 32P-ATP). Type of assay: biochemical.
Source text: as §1
b) inhibition of the activity of the purified Na^+,K^+ -ATPase measured as % of hydrolysis of ^32 P-ATP in presence and in absence of the tested compound (Doucet A. et al. Am. J. Physiol., 1986, 251, F851)

Where [3] appears, read: 3H-ouabain displacement, purified Na+,K+-ATPase, read-out: Binding ^3 H-Ouab. Displacement log IC50 (converted).
Setting [4] is: purified Na+,K+-ATPase, 32P-ATP hydrolysis, read-out: Inhibitory Activity log IC50 (converted).

The term IC50 denotes the concentration that gives 50% inhibition. With `CC(/C=N/NC1=NCCN1)=C\[C@H]1CC[C@]2(O)[C@@H]3CC[C@@H]4C[C@@H](O)CC[C@]4(C)[C@H]3CC[C@]12C` [Comp. I-ab, (E,E)-17β-[3-(2-Imidazolin-2-yl)hydrazono-2-methyl-1-propenyl]-5β-androstane-3β,14β-diol], the half-maximal inhibitory concentration (IC50) on Na^+,K^+ -ATPase [1] (setting [3]) is 63.1 nM; at Na^+,K^+ -ATPase [2] (setting [4]), 3160 nM.

For `CC(/C=N/NC1=NCCN1C)=C\[C@H]1CC[C@]2(O)[C@@H]3CC[C@@H]4C[C@@H](O)CC[C@]4(C)[C@H]3CC[C@]12C` [Comp. I-ac, (E,E)-17β-[3-(1-Methyl-2-imidazolin-2-yl)hydrazono-2-methyl-1-propenyl]-5β-androstane-3β,14β-diol], the IC50 was 316 nM at Na^+,K^+ -ATPase [1] (setting [3]) and 3980 nM against Na^+,K^+ -ATPase [2].

Regarding `CC(/C=N/NC1=NCCCN1)=C\[C@H]1CC[C@]2(O)[C@@H]3CC[C@@H]4C[C@@H](O)CC[C@]4(C)[C@H]3CC[C@]12C` [Comp. I-ad, (E,E)-17β-[3-(1,4,5,6-Tetrahydro-2-pyrimidinyl)hydrazono-2-methyl-1-propenyl]-5β-androstane-3β,14β-diol], the IC50 is 63.1 nM on Na^+,K^+ -ATPase [1] (setting [3]) and 2510 nM at Na^+,K^+ -ATPase [2].

On to `CC(/C=N/NC(=N)NCCN(C)C)=C\[C@H]1CC[C@]2(O)[C@@H]3CC[C@@H]4C[C@@H](O)CC[C@]4(C)[C@H]3CC[C@]12C` [Comp. I-ae, (E,E)-17β-{3-[3-(2-Dimethylaminoethyl)guanidinoimino]-2-methyl-1-propenyl}-5β-androstane-3β,14β-diol], for which the values for the half-maximal inhibitory concentration (IC50) at Na^+,K^+ -ATPase [1] and at Na^+,K^+ -ATPase [2] were 501 nM and 6310 nM, respectively.

As to `CC(/C=N/OCCCN)=C\[C@H]1CC[C@]2(O)[C@@H]3CC[C@@H]4C[C@@H](O)CC[C@]4(C)[C@H]3CC[C@]12C` [Comp. I-ag], the figures for the IC50 at Na^+,K^+ -ATPase [1] (setting [3]) and on Na^+,K^+ -ATPase [2] (setting [4]) were 25.1 nM and 50.1 nM, respectively.

Take `CC(/C=N/OCCN(C)C)=C\[C@H]1CC[C@]2(O)[C@@H]3CC[C@@H]4C[C@@H](O)CC[C@]4(C)[C@H]3CC[C@]12C` [Comp. I-ah, (E,E)-17β-[3-(2-Dimethylaminoethoxyimino)-2-methyl-1-propenyl]-5β-androstane-3β,14β-diol]: the IC50 at Na^+,K^+ -ATPase [1] (setting [3]) was 20 nM; on Na^+,K^+ -ATPase [2] (setting [4]) it was 63.1 nM.

For the molecule `CC(/C=N/OCCCN(C)C)=C\[C@H]1CC[C@]2(O)[C@@H]3CC[C@@H]4C[C@@H](O)CC[C@]4(C)[C@H]3CC[C@]12C` [Comp. I-ai, (E,E)-17β-[3-(3-Dimethylaminopropoxyimino)-2-methyl-1-propenyl]-5β-androstane-3β,14β-diol], the concentration for half-maximal inhibition (IC50) was 31.6 nM on Na^+,K^+ -ATPase [1] (setting [3]) and 63.1 nM at Na^+,K^+ -ATPase [2] (setting [4]).

With `CC(/C=N/OCCNC(=N)N)=C\[C@H]1CC[C@]2(O)[C@@H]3CC[C@@H]4C[C@@H](O)CC[C@]4(C)[C@H]3CC[C@]12C` [Comp. I-aj, (E,E)-17β-[3-(2-Guanidinoethoxyimino)-2-methyl-1-propenyl]-5β-androstane-3β,14β-diol], the 50% inhibitory concentration (IC50) at Na^+,K^+ -ATPase [1] is 50.1 nM; on Na^+,K^+ -ATPase [2] (setting [4]) it was 126 nM.

`CC(/C=N/OCCCNC(=N)N)=C\[C@H]1CC[C@]2(O)[C@@H]3CC[C@@H]4C[C@@H](O)CC[C@]4(C)[C@H]3CC[C@]12C` [Comp. I-ak, (E,E)-17β-[3-(3-Guanidinopropoxyimino)-2-methyl-1-propenyl]-5β-androstane-3β,14β-diol]: the results for the IC50 on Na^+,K^+ -ATPase [1] (setting [3]) and against Na^+,K^+ -ATPase [2] were 63.1 nM and 200 nM, respectively.

As for `CCC(/C=N/NC(=N)N)=C\[C@H]1CC[C@]2(O)[C@@H]3CC[C@@H]4C[C@@H](O)CC[C@]4(C)[C@H]3CC[C@]12C` [Comp. I-al, (E,E)-17β-(3-Guanidinoimino-2-ethyl-1-propenyl)-5β-androstane-3β,14β-diol], the IC50 on Na^+,K^+ -ATPase [1] is 126 nM; at Na^+,K^+ -ATPase [2] it was 1000 nM.

As for `CCC(/C=N/OCCN)=C\[C@H]1CC[C@]2(O)[C@@H]3CC[C@@H]4C[C@@H](O)CC[C@]4(C)[C@H]3CC[C@]12C` [Comp. I-am, (E,E)-17β-[3-(2-Aminoethoxyimino)-2-ethyl-1-propenyl]-5β-androstane-3β,14β-diol], the IC50 on Na^+,K^+ -ATPase [1] (setting [3]) is 63.1 nM; at Na^+,K^+ -ATPase [2] (setting [4]), 126 nM.

`CCC(/C=N/OCCCN)=C\[C@H]1CC[C@]2(O)[C@@H]3CC[C@@H]4C[C@@H](O)CC[C@]4(C)[C@H]3CC[C@]12C` [Comp. I-an, (E,E)-17β-[3-(3-Aminopropoxyimino)-2-ethyl-1-propenyl]-5β-androstane-3β,14β-diol]: the IC50 on Na^+,K^+ -ATPase [1] was 100 nM; at Na^+,K^+ -ATPase [2] (setting [4]), 316 nM.

On to `CCC(/C=N/OCCN(C)C)=C\[C@H]1CC[C@]2(O)[C@@H]3CC[C@@H]4C[C@@H](O)CC[C@]4(C)[C@H]3CC[C@]12C` [Comp. I-ao, (E,E)-17β-[3-(2-Dimethylaminoethoxyimino)-2-ethyl-1-propenyl]-5β-androstane-3β,14β-diol], for which the values for the IC50 on Na^+,K^+ -ATPase [1] and at Na^+,K^+ -ATPase [2] (setting [4]) were 126 nM and 501 nM, respectively.

For the molecule `CCC(/C=N/OCCCN(C)C)=C\[C@H]1CC[C@]2(O)[C@@H]3CC[C@@H]4C[C@@H](O)CC[C@]4(C)[C@H]3CC[C@]12C` [Comp. I-ap, (E,E)-17β-[3-(3-Dimethylaminopropoxyimino)-2-ethyl-1-propenyl]-5β-androstane-3β,14β-diol], the IC50 at Na^+,K^+ -ATPase [1] was 200 nM; on Na^+,K^+ -ATPase [2] (setting [4]) it was 631 nM.

Turning to `CC(/C=N/NC(=N)N)=C\[C@@]1(O)CC[C@]2(O)[C@@H]3CC[C@@H]4C[C@@H](O)CC[C@]4(C)[C@H]3CC[C@]12C` [Comp. I-aq, (E,E)-17β-(3-Guanidinoimino-2-methyl-1-propenyl]-5β-androstane-3β,14β,17α-triol], the results for the IC50 at Na^+,K^+ -ATPase [1] (setting [3]) and on Na^+,K^+ -ATPase [2] were 398 nM and 3980 nM, respectively.

Regarding `CC(/C=N/OCCN)=C\[C@@]1(O)CC[C@]2(O)[C@@H]3CC[C@@H]4C[C@@H](O)CC[C@]4(C)[C@H]3CC[C@]12C` [Comp. I-ar, (E,E)-17β-[3-(2-Aminoethoxyimino)-2-methyl-1-propenyl]-5β-androstane-3β,14β,17α-triol], the concentration for half-maximal inhibition (IC50) was 316 nM on Na^+,K^+ -ATPase [1] (setting [3]) and 2510 nM against Na^+,K^+ -ATPase [2].

For the molecule `CC(/C=N/OCCN(C)C)=C\[C@@]1(O)CC[C@]2(O)[C@@H]3CC[C@@H]4C[C@@H](O)CC[C@]4(C)[C@H]3CC[C@]12C` [Comp. I-as, (E,E)-17β-[3-(2-Dimethylaminoethoxyimino)-2-methyl-1-propenyl]-5β-androstane-3β,14β,17α-triol], the IC50 at Na^+,K^+ -ATPase [1] (setting [3]) is 398 nM; on Na^+,K^+ -ATPase [2], 3160 nM.

`CC(/C=N/NC(=N)N)=C\[C@H]1CC[C@]2(O)[C@@H]3CC[C@@H]4C[C@@H](OCCN5CCCC5)CC[C@]4(C)[C@H]3CC[C@]12C` [Comp. I-at, (E,E)-36-[2-(1-Pyrrolidinyl)ethoxy]-17β-(3-guanidinoimino-2-methyl-1-propenyl]-5β-androstane-14β-ol]: the half-maximal inhibitory concentration (IC50) on Na^+,K^+ -ATPase [1] is 39.8 nM; at Na^+,K^+ -ATPase [2] (setting [4]), 158 nM.

On to `CC(/C=N/OCCN)=C\[C@H]1CC[C@]2(O)[C@@H]3CC[C@@H]4C[C@@H](OCCN5CCCC5)CC[C@]4(C)[C@H]3CC[C@]12C` [Comp. I-au], for which the IC50 at Na^+,K^+ -ATPase [1] (setting [3]) was 20 nM; on Na^+,K^+ -ATPase [2] (setting [4]), 39.8 nM.

Regarding `CC(/C=N/NC(=N)N)=C\[C@H]1CC[C@]2(O)[C@@H]3CC[C@@H]4C[C@@H](OCCCN5CCCC5)CC[C@]4(C)[C@H]3CC[C@]12C` [Comp. I-av], the values for the 50% inhibitory concentration (IC50) at Na^+,K^+ -ATPase [1] and at Na^+,K^+ -ATPase [2] (setting [4]) were 50.1 nM and 200 nM, respectively.

Take `CC(/C=N/OCCN)=C\[C@H]1CC[C@]2(O)[C@@H]3CC[C@@H]4C[C@@H](OCC(C)N5CCCC5)CC[C@]4(C)[C@H]3CC[C@]12C` (stereo partly drawn) [Comp. I-aw, (E,E)-3β-[2-(1-Pyrrolidinyl)propoxy]-17β-[3-(2-aminoethoxyimino)-2-methyl-1-propenyl]-5β-androstane-14β-ol]: the concentration for half-maximal inhibition (IC50) was 25.1 nM on Na^+,K^+ -ATPase [1] (setting [3]) and 63.1 nM on Na^+,K^+ -ATPase [2] (setting [4]).

With `CC(/C=N/OCCN)=C\[C@H]1CC[C@]2(O)[C@@H]3CC[C@@H]4C[C@@H](OCCN)CC[C@]4(C)[C@H]3CC[C@]12C` [Comp. I-ay, (E,E)-3β-(2-Aminoethoxy)-17β-[3-(2-aminoethoxyimino)-2-methyl-1-propenyl]-5β-androstane-14β-ol], the 50% inhibitory concentration (IC50) at Na^+,K^+ -ATPase [1] (setting [3]) was 25.1 nM; on Na^+,K^+ -ATPase [2] (setting [4]), 31.6 nM.

On to `CC(/C=N/NC(=N)N)=C\[C@H]1CC[C@]2(O)[C@@H]3CC[C@@H]4C[C@@H](OCCCN)CC[C@]4(C)[C@H]3CC[C@]12C` [Comp. I-az], for which the figures for the 50% inhibitory concentration (IC50) at Na^+,K^+ -ATPase [1] (setting [3]) and on Na^+,K^+ -ATPase [2] (setting [4]) were 25.1 nM and 31.6 nM, respectively.

Consider `CC(/C=N/OCCN)=C\[C@H]1CC[C@]2(O)[C@@H]3CC[C@@H]4C[C@@H](OCCCN)CC[C@]4(C)[C@H]3CC[C@]12C` [Comp. I-ba], for which the IC50 was 20 nM at Na^+,K^+ -ATPase [1] (setting [3]) and 39.8 nM on Na^+,K^+ -ATPase [2] (setting [4]).

For `CC(/C=N/NC(=N)N)=C\[C@H]1CC[C@]2(O)[C@@H]3CC[C@@H]4C[C@H](O)CC[C@]4(C)[C@H]3CC[C@]12C` [Comp. I-bb, (E,E)-17β-(3-Guanidinoimino-2-methyl-1-propenyl)-5β-androstane-3α,14β-diol], the IC50 at Na^+,K^+ -ATPase [1] is 631 nM; against Na^+,K^+ -ATPase [2] it was 3160 nM.

`CC(/C=N/OCCN)=C\[C@H]1CC[C@]2(O)[C@@H]3CC[C@@H]4C[C@H](O)CC[C@]4(C)[C@H]3CC[C@]12C` [Comp. I-bc, (E,E)-17β-[3-(2-Aminoethoxyimino)-2-methyl-1-propenyl]-5β-androstane-3α,14β-diol]: the half-maximal inhibitory concentration (IC50) on Na^+,K^+ -ATPase [1] is 501 nM; at Na^+,K^+ -ATPase [2] it was 2510 nM.

Take `CC(/C=N/OCCN)=C\[C@H]1CC[C@]2(O)[C@@H]3CC[C@@H]4C[C@H](OCCN5CCCC5)CC[C@]4(C)[C@H]3CC[C@]12C` [Comp. I-bd]: the values for the half-inhibitory concentration (IC50) at Na^+,K^+ -ATPase [1] and on Na^+,K^+ -ATPase [2] were 501 nM and 3160 nM, respectively.

As to `CC(/C=N/OCCN)=C\[C@H]1CC[C@]2(O)[C@@H]3CC[C@@H]4C[C@H](OCCCN)CC[C@]4(C)[C@H]3CC[C@]12C` [Comp. I-be, (E,E)-3α-(3-Aminopropoxy)-17β-[3-(2-aminoethoxyimino)-2-methyl-1-propenyl]-5β-androstane-14β-ol], the IC50 is 631 nM on Na^+,K^+ -ATPase [1] and 3980 nM against Na^+,K^+ -ATPase [2].

Source of the values: patent publication US5705662A, “17-(3-imino-2-alkylpropenyl)-5β, 14β-androstane derivatives active on the cardiovascular system, processes for their preparation and pharmaceutical compositions containing same” (Sigma-Tau Industrie Farmaceutiche Riunite S.p.A., priority 1994, dated 1998).
